{"source": "ChEMBL document CHEMBL5150068", "about": "“Structure-Based Design of Tropane Derivatives as a Novel Series of CCR5 Antagonists with Broad-Spectrum Anti-HIV-1 Activities and Improved Oral Bioavailability” (J Med Chem, 2022)", "key": {"in vitro": {"assay": "in vitro", "conditions": "human, TZM-bl cells", "description": "Therapeutic index, ratio of CC50 for human TZM-bl cells to EC50 for antiviral activity against HIV-1 Ba-L"}, "[1]": {"assay": "Cytotoxicity against human TZM-bl cells incubated for 48 hrs by MTT assay", "assay_type": "toxicity, cell-based"}, "[2]": {"target": "C-C chemokine receptor type 5 (Homo sapiens, UniProt P51681)", "sequence (P51681 whole entry)": "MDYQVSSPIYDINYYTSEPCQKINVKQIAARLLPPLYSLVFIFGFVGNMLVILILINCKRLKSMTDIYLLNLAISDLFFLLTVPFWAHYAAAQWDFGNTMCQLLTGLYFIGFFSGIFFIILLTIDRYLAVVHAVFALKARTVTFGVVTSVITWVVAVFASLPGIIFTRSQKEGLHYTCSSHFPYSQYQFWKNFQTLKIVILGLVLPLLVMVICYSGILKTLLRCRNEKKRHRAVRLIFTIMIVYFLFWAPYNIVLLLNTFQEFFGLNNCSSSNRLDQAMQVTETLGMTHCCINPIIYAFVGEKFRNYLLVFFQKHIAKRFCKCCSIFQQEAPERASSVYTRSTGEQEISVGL", "assay": "Antagonist activity at CCR5 (unknown origin) expressed in HEK293 cells co-expressing Galpha16 assessed as intracellular calcium change incubated for 15 mins by Fluo-4 AM calcium flux assay", "assay_type": "functional, cell-based"}, "[3]": {"tested_on": "Human immunodeficiency virus 1", "assay": "Antiviral activity against HIV-1 Ba-L infected in human TZM-bl cells measured after 48 hrs incubation by luciferase based analysis", "assay_type": "functional, organism-based", "conditions": "Human immunodeficiency virus 1, Ba-L"}, "[4]": {"tested_on": "Human immunodeficiency virus 1", "assay": "Antiviral activity against HIV-1 SF162 infected in human TZM-bl cells measured after 48 hrs incubation by luciferase based analysis", "assay_type": "functional, organism-based", "conditions": "Human immunodeficiency virus 1, SF162, TZM-bl"}, "[5]": {"tested_on": "Human immunodeficiency virus 1", "assay": "Antiviral activity against HIV-1 YU-2 infected in human TZM-bl cells measured after 48 hrs incubation by luciferase based analysis", "assay_type": "functional, organism-based"}, "[6]": {"tested_on": "Human immunodeficiency virus 1", "assay": "Antiviral activity against HIV-1 YU-2 (G140S/Q148H) infected in human TZM-bl cells measured after 48 hrs incubation by luciferase based analysis", "assay_type": "functional, organism-based", "conditions": "Human immunodeficiency virus 1, YU-2 (G140S/Q148H)"}, "[7]": {"tested_on": "Human immunodeficiency virus 1", "assay": "Antiviral activity against HIV-1 Ba-L infected in human PM1 cells measured after 48 hrs incubation by ELISA based p24 antigen assay", "assay_type": "functional, organism-based", "conditions": "Human immunodeficiency virus 1, Ba-L, PM1, 48 h"}, "[8]": {"tested_on": "Human immunodeficiency virus 1", "assay": "Antiviral activity against HIV-1 KM018 clinical isolate infected in human PBMC measured after 48 hrs incubation by luciferase based analysis", "assay_type": "functional, organism-based", "conditions": "Human immunodeficiency virus 1, KM018, PBMC"}, "[9]": {"tested_on": "Human immunodeficiency virus 1", "assay": "Antiviral activity against HIV-1 KIZ001 clinical isolate infected in human PBMC measured after 48 hrs incubation by luciferase based analysis", "assay_type": "functional, organism-based", "conditions": "Human immunodeficiency virus 1, KIZ001, PBMC"}, "[10]": {"tested_on": "Human immunodeficiency virus 1", "assay": "Antiviral activity against HIV-1 Ba-L infected in human HOS-CD4-CCR5 cells measured after 48 hrs incubation by ELISA based p24 antigen assay", "assay_type": "functional, organism-based", "conditions": "Human immunodeficiency virus 1, Ba-L"}, "[11]": {"tested_on": "Human immunodeficiency virus 1", "assay": "Antiviral activity against HIV-1 IIIB infected in human TZM-bl cells measured after 48 hrs incubation by luciferase based analysis", "assay_type": "functional, organism-based", "conditions": "Human immunodeficiency virus 1, IIIB"}, "[12]": {"tested_on": "Human immunodeficiency virus 1", "assay": "Antiviral activity against HIV-1 KIZ006 clinical isolate infected in human PBMC measured after 48 hrs incubation by luciferase based analysis", "assay_type": "functional, organism-based", "conditions": "Human immunodeficiency virus 1, KIZ006, PBMC"}}, "note": "Where “and” joins values, the source holds several entries; their conditions need not be identical. Identical values can stand only once.", "data": [{"smiles": "COCc1nnc(C(C)C)n1[C@@H]1C[C@H]2CC[C@@H](C1)N2CC[C@H](NC(=O)C1CCC(F)(F)CC1)c1ccsc1", "values": [{"measurement": "selectivity ratio", "setting": "in vitro", "result": 2430}, {"measurement": "CC50 at 48 h", "setting": "[1]", "result": 72900, "unit": "nM"}, {"measurement": "IC50", "setting": "[2]", "result": 2.49, "unit": "nM"}, {"measurement": "EC50", "setting": "[3]", "result": 30, "unit": "nM"}]}, {"smiles": "CC(=O)N[C@@H](CCN1[C@@H]2CC[C@H]1C[C@H](n1c(C)nnc1C(C)C)C2)c1cccs1", "values": [{"measurement": "selectivity ratio", "setting": "in vitro", "result": 36.8}, {"measurement": "CC50 at 48 h", "setting": "[1]", "result": 40500, "unit": "nM"}, {"measurement": "IC50", "setting": "[2]", "result": 15, "unit": "nM"}, {"measurement": "EC50", "setting": "[4]", "result": 1100, "unit": "nM"}]}, {"smiles": "Cc1ccsc1[C@H](CCN1[C@@H]2CC[C@H]1C[C@H](n1c(C)nnc1C(C)C)C2)NC(=O)C1CCCC1", "values": [{"measurement": "selectivity ratio", "setting": "in vitro", "result": "> 6900"}, {"measurement": "EC50", "setting": "[5]; tzm-bl", "result": "29 nM and 78 nM"}, {"measurement": "CC50 at 48 h", "setting": "[1]", "result": "> 200000", "unit": "nM"}, {"measurement": "IC50", "setting": "[2]", "result": 18.9, "unit": "nM"}]}, {"smiles": "Cc1ccc([C@H](CCN2[C@@H]3CC[C@H]2C[C@H](n2c(C)nnc2C(C)C)C3)NC(=O)C2CCN(S(C)(=O)=O)CC2)s1", "values": [{"measurement": "selectivity ratio", "setting": "in vitro", "result": "> 44"}, {"measurement": "CC50 at 48 h", "setting": "[1]", "result": "> 200000", "unit": "nM"}, {"measurement": "IC50", "setting": "[2]", "result": 7.99, "unit": "nM"}, {"measurement": "EC50", "setting": "[3]", "result": 4540, "unit": "nM"}]}, {"smiles": "Cc1nnc(C(C)C)n1[C@@H]1C[C@H]2CC[C@@H](C1)N2CC[C@H](NC(=O)C1CCC(F)(F)CC1)c1ccsc1Cl", "values": [{"measurement": "selectivity ratio", "setting": "in vitro", "result": "> 370"}, {"measurement": "CC50 at 48 h", "setting": "[1]", "result": "> 200000", "unit": "nM"}, {"measurement": "IC50", "setting": "[2]", "result": 5.34, "unit": "nM"}, {"measurement": "EC50", "setting": "[3]", "result": 540, "unit": "nM"}]}, {"smiles": "CC(=O)Nc1cccc(C(=O)N[C@@H](CCN2[C@@H]3CC[C@H]2C[C@H](n2c(C)nnc2C(C)C)C3)c2cccs2)c1", "values": [{"measurement": "selectivity ratio", "setting": "in vitro", "result": "> 59"}, {"measurement": "CC50 at 48 h", "setting": "[1]", "result": "> 200000", "unit": "nM"}, {"measurement": "IC50", "setting": "[2]", "result": 40.4, "unit": "nM"}, {"measurement": "EC50", "setting": "[3]", "result": 3390, "unit": "nM"}]}, {"smiles": "Cc1nnc(C(C)C)n1[C@@H]1C[C@H]2CC[C@@H](C1)N2CC[C@H](NC(=O)C1CCCCC1)c1ccc(F)s1", "values": [{"measurement": "selectivity ratio", "setting": "in vitro", "result": "> 75.2"}, {"measurement": "CC50 at 48 h", "setting": "[1]", "result": "> 200000", "unit": "nM"}, {"measurement": "IC50", "setting": "[2]", "result": 9.33, "unit": "nM"}, {"measurement": "EC50", "setting": "[4]", "result": 2660, "unit": "nM"}]}, {"smiles": "Cc1nnc(C(C)C)n1[C@@H]1C[C@H]2CC[C@@H](C1)N2CC[C@H](NC(=O)C1CCCC1)c1ccsc1Cl", "values": [{"measurement": "selectivity ratio", "setting": "in vitro", "result": "> 219"}, {"measurement": "CC50 at 48 h", "setting": "[1]", "result": "> 200000", "unit": "nM"}, {"measurement": "IC50", "setting": "[2]", "result": 4.36, "unit": "nM"}, {"measurement": "EC50", "setting": "[3]", "result": 910, "unit": "nM"}]}, {"smiles": "Cc1nnc(C(C)C)n1[C@H]1C[C@H]2CC[C@@H](C1)N2CC[C@H](NC(=O)C1CCC(F)(F)CC1)c1ccccc1", "note": "[MARAVIROC]", "values": [{"measurement": "EC50", "setting": "[6]", "result": 2.18, "unit": "nM"}, {"measurement": "EC50", "setting": "[7]", "result": 0.34, "unit": "nM"}, {"measurement": "EC50", "setting": "[8]", "result": 10.2, "unit": "nM"}, {"measurement": "EC50", "setting": "[5]; Human immunodeficiency virus 1, YU-2, TZM-bl, 48 h", "result": 2.96, "unit": "nM"}, {"measurement": "EC50", "setting": "[9]", "result": 14.9, "unit": "nM"}, {"measurement": "EC50", "setting": "[10]", "result": 1.04, "unit": "nM"}, {"measurement": "EC50", "setting": "[11]", "result": "> 1000", "unit": "nM"}, {"measurement": "EC50", "setting": "[12]", "result": 92, "unit": "nM"}, {"measurement": "EC50", "setting": "[3]", "result": 15, "unit": "nM"}, {"measurement": "EC50", "setting": "[4]", "result": 19.2, "unit": "nM"}]}, {"smiles": "Cc1nnc(C(C)C)n1[C@@H]1C[C@H]2CC[C@@H](C1)N2CC[C@H](NC(=O)C1CCC(F)(F)CC1)c1cscn1", "values": [{"measurement": "selectivity ratio", "setting": "in vitro", "result": 2560}, {"measurement": "CC50 at 48 h", "setting": "[1]", "result": "> 200000", "unit": "nM"}, {"measurement": "IC50", "setting": "[2]", "result": 67.4, "unit": "nM"}, {"measurement": "EC50", "setting": "[3]", "result": 78, "unit": "nM"}]}, {"smiles": "Cc1nnc(C(C)C)n1[C@@H]1C[C@H]2CC[C@@H](C1)N2CC[C@H](NC(=O)C1CCCC1)c1ccc(C#N)s1", "values": [{"measurement": "CC50 at 48 h", "setting": "[1]", "result": "> 200000", "unit": "nM"}, {"measurement": "IC50", "setting": "[2]", "result": "> 10000", "unit": "nM"}, {"measurement": "EC50", "setting": "[3]", "result": "> 200000", "unit": "nM"}]}]}
